In patent US20230087609A1, “USE OF A SOLUBLE GUANYLATE CYCLASE (sGC) STIMULATOR OR OF A COMBINATION OF A sGC STIMULATOR AND AN sGC ACTIVATOR FOR CONDITIONS WHEREIN THE HEME GROUP OF sGC IS OXIDIZED OR WHEREIN sGC IS DEFICIENT IN HEME” (Universiteit Maastricht, priority 2020, published 2023):
“Also recorded” adds a separate entry of the source.

Biological target: T1, human sGCa1 and mutant sGCβ1H105F (apo-sGC) in Sf9 cells (Homo sapiens, UniProt Q02153, H105F)
T1 construct: His tag; expressed in transfected cells; host or cells: Sf9 cells co-infected with baculoviruses
T1 sequence (Q02153 1-619 H105F): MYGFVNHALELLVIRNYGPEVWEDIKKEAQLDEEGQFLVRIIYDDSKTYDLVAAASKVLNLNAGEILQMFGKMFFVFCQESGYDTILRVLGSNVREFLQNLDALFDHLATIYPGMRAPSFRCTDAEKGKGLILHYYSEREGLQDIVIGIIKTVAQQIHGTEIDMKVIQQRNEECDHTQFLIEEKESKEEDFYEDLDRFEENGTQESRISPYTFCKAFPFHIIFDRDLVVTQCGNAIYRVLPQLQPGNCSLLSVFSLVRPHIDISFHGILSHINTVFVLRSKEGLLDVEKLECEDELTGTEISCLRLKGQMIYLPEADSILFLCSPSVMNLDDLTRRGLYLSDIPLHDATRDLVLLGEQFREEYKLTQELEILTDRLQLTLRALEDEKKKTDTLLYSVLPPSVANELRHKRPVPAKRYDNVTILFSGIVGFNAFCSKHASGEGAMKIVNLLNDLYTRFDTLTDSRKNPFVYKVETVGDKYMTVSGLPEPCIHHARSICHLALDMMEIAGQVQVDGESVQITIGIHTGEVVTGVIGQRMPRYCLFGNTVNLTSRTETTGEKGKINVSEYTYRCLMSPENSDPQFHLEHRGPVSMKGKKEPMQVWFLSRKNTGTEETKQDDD
T1 sequence (Q02108 1-690 partner): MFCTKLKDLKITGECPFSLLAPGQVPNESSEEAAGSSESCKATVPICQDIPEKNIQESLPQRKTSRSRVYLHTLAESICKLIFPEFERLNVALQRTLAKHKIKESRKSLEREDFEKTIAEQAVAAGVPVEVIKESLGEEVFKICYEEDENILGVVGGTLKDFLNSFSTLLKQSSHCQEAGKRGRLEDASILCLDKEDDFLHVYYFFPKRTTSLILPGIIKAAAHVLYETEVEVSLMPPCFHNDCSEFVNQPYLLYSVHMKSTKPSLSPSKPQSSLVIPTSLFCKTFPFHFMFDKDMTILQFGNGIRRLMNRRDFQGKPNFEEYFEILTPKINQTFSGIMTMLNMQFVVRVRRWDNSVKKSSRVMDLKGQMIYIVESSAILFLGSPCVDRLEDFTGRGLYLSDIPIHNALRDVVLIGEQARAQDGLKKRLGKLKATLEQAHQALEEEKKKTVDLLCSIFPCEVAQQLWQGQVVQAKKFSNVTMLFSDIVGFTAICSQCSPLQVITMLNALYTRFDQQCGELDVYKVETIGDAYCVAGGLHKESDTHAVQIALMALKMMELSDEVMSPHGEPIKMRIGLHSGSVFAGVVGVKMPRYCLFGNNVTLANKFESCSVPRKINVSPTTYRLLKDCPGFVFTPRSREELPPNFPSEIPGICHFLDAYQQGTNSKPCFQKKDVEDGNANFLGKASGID
Assay: cGMP accumulation in intact Sf9 cells expressing apo-sGC
Assay type: cell-based
Details: for cGMP formation, sGC stimulator combined with NO donor: 30 micromole/L Bay 41-2272 + 10 micromole/L DETA-NONOate (FIG. 12A, B); for cGMP formation, sGC stimulator only: 30 micromole/L Bay 41-2272 alone (FIG. 12A)
Procedure: Sf9 cells were co-infected with baculoviruses expressing human sGCa1 and mutant sGCβ1H105F. Forty-eight hours post-infection, the cells were treated with vehicle, NO donor, sGC stimulator, sGC activator or combination in 2 ml final volume of 10^6 cells per ml then the cells were incubated for 10 min at 27° C. The reaction was terminated by the addition of 0.1M of HCl, and cGMP was extracted on ice for 20 min. Cells were then sonicated to ensure complete lysis. The extract was then centrifuged and used for cGMP determination by an ELISA (Enzo Life Sciences).
Forty-eight hours post-infection, the cells were treated with vehicle, NO donor, sGC stimulator, sGC activator or combination in 2 ml final volume of 10^6 cells per ml and subsequently, the cells were incubated for 10 minutes at 27° C. The reaction was terminated by the addition of 0.1M of HCl, and cGMP was extracted on ice for 20 minutes. Cells were then sonicated to ensure complete lysis. The obtained cell extract was then centrifuged and used for cGMP determination by an ELISA. […] In the absence of any of the NO donor, the sGCs or the combination of these compounds, no cGMP synthesis is detected. It is now for the first time shown by the inventors that apo-sGC is still activatable even in the absence of an sGC activator known in the art. The presence of the sGCs facilitates NO binding to a secondary, heme-independent NO binding-site, and in addition, presence of an NO donor acts synergistically, when cGMP production is considered. Due to the invention, it is now made possible to treat patients with an sGCs, resulting in cGMP formation, under conditions wherein treatment with sGC activators has no effect at all or a too small effect, e.g. under conditions of ischemia, neonatal asphyxia, stroke, hypoxia, acute respiratory distress syndrome, asthma, oxidative (organ and/or tissue and/or cell) damage, etc. The invention provides a new treatment modality for these patients, which are often not sensitive (enough) for sGCa treatment. […] C.

Nc1nc(-c2nn(Cc3ccccc3F)c3ncccc23)ncc1C1CC1 [BAY 41-2272, 5-cyclopropyl-2-[1-(2-fluoro-benzyl)-1H-pyrazolo[3,4-b]pyridin-3-yl]-pyrimidin-4-ylamine]
cGMP formation, sGC stimulator combined with NO donor (listed as Bay 41-2272): synergistic increase in cGMP formation
cGMP formation, sGC stimulator combined with NO donor (listed as Bay41-2272): more than double amount of cGMP; also recorded: synergistic increase in cGMP formation
cGMP formation, sGC stimulator only (listed as Bay 41-2272): increase in cGMP formation
cGMP formation, sGC stimulator only (listed as Bay41-2272): resulted in cGMP production; also recorded: increase in cGMP formation
